According to US7375222B2, “2,4,6-Triamino-1,3,5-triazine derivative” (Astellas Pharma Inc., priority 2002, dated 2008):
Counter-ions that a name gives are not always drawn.

Assays:
BEC 1 potassium channel = target: T1, BEC 1 potassium channel (Homo sapiens, UniProt Q9ULD8); experiment: BEC 1 inhibitory activity using released amount of 86Rb ions from BEC 1-expressing cells; format: cell-based; conditions: 86Rb ion release, BEC 1-stably expressing CHO (dhfr-deficient) cell, 100 mM KCl stimulation; read-out: BEC1 IC50
T1 construct: expressed in transfected cells
T1 sequence (Q9ULD8 1-1083): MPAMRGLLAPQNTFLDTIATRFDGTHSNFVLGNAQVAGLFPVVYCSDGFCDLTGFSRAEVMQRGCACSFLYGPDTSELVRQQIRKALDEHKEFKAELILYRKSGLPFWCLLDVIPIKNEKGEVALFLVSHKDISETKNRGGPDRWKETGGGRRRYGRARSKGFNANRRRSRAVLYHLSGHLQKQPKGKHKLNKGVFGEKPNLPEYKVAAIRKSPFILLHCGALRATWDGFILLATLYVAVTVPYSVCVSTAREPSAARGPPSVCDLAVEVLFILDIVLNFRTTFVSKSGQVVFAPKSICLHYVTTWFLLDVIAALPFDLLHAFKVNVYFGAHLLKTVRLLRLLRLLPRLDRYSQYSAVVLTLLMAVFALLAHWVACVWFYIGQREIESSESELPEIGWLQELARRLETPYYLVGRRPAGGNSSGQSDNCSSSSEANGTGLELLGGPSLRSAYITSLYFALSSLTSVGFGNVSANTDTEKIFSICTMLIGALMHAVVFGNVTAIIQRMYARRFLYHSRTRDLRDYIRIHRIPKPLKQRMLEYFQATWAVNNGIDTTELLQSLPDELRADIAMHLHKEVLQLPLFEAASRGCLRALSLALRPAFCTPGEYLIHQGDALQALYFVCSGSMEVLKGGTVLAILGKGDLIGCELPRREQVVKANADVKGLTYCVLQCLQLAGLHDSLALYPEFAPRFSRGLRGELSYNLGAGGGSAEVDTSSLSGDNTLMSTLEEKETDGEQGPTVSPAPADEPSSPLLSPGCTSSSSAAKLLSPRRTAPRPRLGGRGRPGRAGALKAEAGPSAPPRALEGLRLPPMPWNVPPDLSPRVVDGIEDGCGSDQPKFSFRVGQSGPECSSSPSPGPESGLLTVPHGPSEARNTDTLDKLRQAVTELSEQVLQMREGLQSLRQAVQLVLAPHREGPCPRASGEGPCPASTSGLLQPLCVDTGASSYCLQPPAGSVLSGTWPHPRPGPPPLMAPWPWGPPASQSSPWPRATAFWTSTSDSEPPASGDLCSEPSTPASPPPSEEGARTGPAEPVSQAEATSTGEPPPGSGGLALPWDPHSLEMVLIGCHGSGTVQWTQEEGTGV
Description: In general, the potassium channel can pass Rb^+ ion similar to K^+ ion, so that the channel activity can be measured using release of a radioisotope ^86Rb^+ as a marker. By incubating cells expressing the novel potassium channel protein together with ^86RbCl (e.g., 18 hr, 37° C.), ^86Rb^+ can be incorporated into the cells. The cells are washed with a low K^+ concentration physiological saline (e.g., 4.5 mM K^+) and then suspended in the same solution. When a high K^+ concentration solution (e.g., 100 mM in final concentration) is added to the cell suspension, membrane potential of the cell is depolarized and the potassium channel therefore is activated. As a result, the intracellular ^86Rb^+ is released into the extracellular part, thus radioactivity of the extracellular solution can be used as a marker of the channel activity. It is possible to screen a compound and a peptide capable of modifying activity of the BEC 1 potassium channel protein, by comparing the radioactivity released into the extracellular part when the high K^+ concentration solution is added in the presence and absence of each drug to be tested.
Method for Measuring BEC 1 Inhibitory Activity of Compounds Using Released Amount of ^86Rb ions as the Index
The channel activity of BEC 1 was measured in accordance with the method described in WO 99/37677, using amount of a radioisotope ^86Rb ion released from a BEC 1-expressing cell as the index. That is, when an ^86Rb ion-incorporated BEC 1-expressing cell was stimulated with 100 mM KCl, the radioactivity released from the cell was used as the channel activity of BEC 1. The ^86Rb ions were incorporated into a BEC 1-stably expressing cell by culturing the cell (3 hours, 37° C.) in the presence of ^86RbCl (0.5 μCi/ml), and the un-incorporated ^86Rb ions were removed by washing three times with HEPES-buffered saline (pH 7.4, 2.5 mM KCl). The cells were incubated with HEPES-buffered saline containing a compound to be tested at room temperature for 15 minutes and then further incubated with 100 mM KCl-containing HEPES-buffered saline (pH 7.4) containing the compound to be tested at room temperature for 5 minutes. The extracellular medium was recovered, and then the remaining cells were lysed with 0.1 N NaOH and recovered.
The Cerenkov radioactivity of the extracellular medium and cell lysate was respectively measured, and their total was used as the total radioactivity. The released amount of ^86Rb ions was expressed by the percentage of extracellular medium radioactivity based on the total radioactivity. The value obtained in the presence of the compound was used as a test value, and the value obtained in the absence of the compound as a control value and the value obtained when not stimulated with 100 mM KCl as a blank value. Inhibitory action of each compound was expressed by % inhibition, namely (control value−test value)×100/(control value−blank value), or by an IC50 value calculated from the % inhibition. As the test results of typical compounds are shown in the following Tables 2 and 3, it was confirmed that said compounds have the BEC 1 potassium channel inhibitory action.
In this connection, as the BEC 1-expressing cell, a BEC 1-stably expressing cell prepared in accordance with the method described in WO 99/37677 using a dihydrofolate reductase (dhfr)-deficient strain of a Chinese hamster ovary cell was used.

| melting point [°C] | IC50 (BEC 1 potassium channel) [nM] | SMILES |
| --- | --- | --- |
| 112 to 113 | – | CC(CCCC(C)(C)O)Nc1nc(Nc2ccccc2)nc(Nc2ccccc2)n1 (centres unmarked) (as salt: HCl) [Example 742] |
| 179 to 181 | – | COCCNc1nc(Nc2ccccc2)nc(Nc2ccc(F)cc2)n1 (as salt: HCl) [Example 771] |
| 209 to 211 | – | OCCNc1nc(Nc2ccccc2)nc(Nc2ccc(F)cc2)n1 (as salt: HCl) [Example 773] |
| 185 to 186 | – | OCCCCNc1nc(Nc2ccccc2)nc(Nc2ccc(F)cc2)n1 (as salt: HCl) [Example 775] |
| 141 to 142 | – | OCCOCCNc1nc(Nc2ccccc2)nc(Nc2ccc(F)cc2)n1 (as salt: HCl) [Example 777] |
| 169 to 170 | – | COCCNc1nc(Nc2ccccc2)nc(Nc2ccc(OC)cc2)n1 (as salt: HCl) [Example 808] |
| 191 to 192 | – | OCCCNc1nc(Nc2ccccc2)nc(Nc2ccccc2)n1 (as salt: HCl) [compound 21] |
| 167 to 169 | – | OCCOCCNc1nc(Nc2ccccc2)nc(Nc2ccccc2)n1 (as salt: HCl) [compound 23] |
| 166 to 167 | – | Fc1ccc(CNc2nc(Nc3ccc(F)cc3)nc(Nc3ccc(F)cc3)n2)cc1 (as salt: HCl) [compound 29] |
| 162 to 163 | – | OCCCCCNc1nc(Nc2ccc(F)cc2)nc(Nc2ccc(F)cc2)n1 (as salt: HCl) [compound 37] |
| 151 to 152 | – | OCCOCCNc1nc(Nc2ccc(F)cc2)nc(Nc2ccc(F)cc2)n1 (as salt: HCl) [compound 38] |
| 144 to 148 | – | Fc1ccc(Nc2nc(NCc3ccco3)nc(Nc3ccccc3)n2)cc1 (hydrate or solvate) [Example 764] |
| 188 to 189 | – | OCCCNc1nc(Nc2ccccc2)nc(Nc2ccc(F)cc2)n1 (hydrate or solvate) [Example 774] |
| 184 to 187 | – | CCN(CC)CCCC(C)Nc1nc(Nc2ccccc2)nc(Nc2ccc(F)cc2)n1 (centres unmarked) (hydrate or solvate) [Example 794] |
| 78 to 81 | 390 | CCCCCNc1nc(Nc2ccccc2)nc(Nc2ccccc2)n1 [compound 14] |

Further lines, the molecule ahead of its results:

| SMILES | melting point [°C] | IC50 (BEC 1 potassium channel) [nM] |
| --- | --- | --- |
| Cc1ccc(Nc2nc(Nc3ccccc3)nc(NC(C)C)n2)cc1 (as salt: HCl) [Ex 47] | 194 to 195 | – |
| CC(C)Nc1nc(Nc2ccccc2)nc(Nc2ccc(C(F)(F)F)cc2)n1 (as salt: HCl) [Ex 49] | 198 to 200 | – |
| Fc1ccc(Nc2nc(NCc3ccnc(F)c3)nc(Nc3ccc(F)cc3)n2)cc1 (as salt: HCl) [Example 743] | 191 to 192 | – |
| Fc1ccc(Nc2nc(NCc3ccnc(F)c3)nc(Nc3ccccc3)n2)cc1 (as salt: HCl) [Example 744] | 175 to 177 | – |
| OCCCCCNc1nc(Nc2ccccc2)nc(Nc2ccc(F)cc2)n1 (as salt: HCl) [Example 776] | 178 to 180 | – |
| C[C@H](CO)Nc1nc(Nc2ccccc2)nc(Nc2ccc(F)cc2)n1 (as salt: HCl) [Example 779] | 193 to 195 | – |
| CN(C)Nc1nc(Nc2ccccc2)nc(Nc2ccc(F)cc2)n1 (as salt: HCl) [Example 791] | 154 to 156 | – |
| Fc1ccc(Nc2nc(NCc3ccnc(F)c3)nc(Nc3ccc(Cl)cc3)n2)cc1 (as salt: HCl) [Example 797] | 214 to 215 | – |
| C#CCNc1nc(Nc2ccccc2)nc(Nc2ccccc2)n1 (as salt: HCl) [compound 16] | 195 to 197 | – |
| COCCCNc1nc(Nc2ccccc2)nc(Nc2ccccc2)n1 (as salt: HCl) [compound 18] | 154 to 155 | – |
| CSCCCNc1nc(Nc2ccccc2)nc(Nc2ccccc2)n1 (as salt: HCl) [compound 19] | 162 to 163 | – |
| Fc1ccc(Nc2nc(NCc3ccco3)nc(Nc3ccc(F)cc3)n2)cc1 (as salt: HCl) [compound 30] | 179 to 180 | – |
| Fc1ccc(Nc2nc(NCc3cccs3)nc(Nc3ccc(F)cc3)n2)cc1 (as salt: HCl) [compound 31] | 180 to 182 | – |
| COCCNc1nc(Nc2ccc(F)cc2)nc(Nc2ccc(F)cc2)n1 (as salt: HCl) [compound 35] | 175 to 176 | – |
| COc1cccc(Nc2nc(Nc3cccc(OC)c3)nc(NC(C)C)n2)c1 (as salt: HCl) [compound 40] | 180 to 182 | – |
| [O-][n+]1ccc(CCNc2nc(Nc3ccccc3)nc(Nc3ccccc3)n2)cc1 (as salt: salt) (hydrate or solvate) [Example 740] | 161 to 162 | – |
| c1ccc(Nc2nc(NCC3CCOCC3)nc(Nc3ccccc3)n2)cc1 (as salt: salt) (hydrate or solvate) [Example 741] | 191 to 193 | – |
| Nc1cc(CNc2nc(Nc3ccccc3)nc(Nc3ccc(F)cc3)n2)ccn1 (as salt: salt) (hydrate or solvate) [Example 747] | 164 to 199 | – |
| Nc1cccc(CNc2nc(Nc3ccccc3)nc(Nc3ccc(F)cc3)n2)n1 (hydrate or solvate) [Example 819] | 164 to 165 | – |
| COCCNc1nc(Nc2ccccc2)nc(Nc2ccccc2)n1 [compound 17] | 128 to 129 | 290 |
| OCCCCCNc1nc(Nc2ccccc2)nc(Nc2ccccc2)n1 [compound 22] | 118 to 119 | 190 |
| CC(C)Nc1nc(Nc2ccccc2)nc(Nc2ccc(F)cc2)n1.Cl [compound 45, N-(4-fluorophenyl)-N′-isopropyl-N″-phenyl-1,3,5-triazine-2,4,6-triamine hydrochloride] | 205 to 206 | 220 |
